Experimental data reported in ChEMBL document CHEMBL6177998, “Rational Design of Dual Degraders by Incorporating Molecular Glue Structural Features into PROTAC Degraders” (J Med Chem, 2025).
The source made the active and inactive calls. No cut-off for these calls is given here.

Assays:
[1] = molecular target: T1, Protein cereblon/Eukaryotic peptide chain release factor GTP-binding subunit ERF3A (Homo sapiens, UniProt Q96SW2+P15170); experiment: Molecular glue activity at CRBN/GSPT1 in human VCaP cells assessed as induction of GSPT1 degradation at 20 nM by Western blot analysis; format: cell-based; conditions: time 1-36 hrs
Target sequence in this assay (P15170 whole entry, looked up): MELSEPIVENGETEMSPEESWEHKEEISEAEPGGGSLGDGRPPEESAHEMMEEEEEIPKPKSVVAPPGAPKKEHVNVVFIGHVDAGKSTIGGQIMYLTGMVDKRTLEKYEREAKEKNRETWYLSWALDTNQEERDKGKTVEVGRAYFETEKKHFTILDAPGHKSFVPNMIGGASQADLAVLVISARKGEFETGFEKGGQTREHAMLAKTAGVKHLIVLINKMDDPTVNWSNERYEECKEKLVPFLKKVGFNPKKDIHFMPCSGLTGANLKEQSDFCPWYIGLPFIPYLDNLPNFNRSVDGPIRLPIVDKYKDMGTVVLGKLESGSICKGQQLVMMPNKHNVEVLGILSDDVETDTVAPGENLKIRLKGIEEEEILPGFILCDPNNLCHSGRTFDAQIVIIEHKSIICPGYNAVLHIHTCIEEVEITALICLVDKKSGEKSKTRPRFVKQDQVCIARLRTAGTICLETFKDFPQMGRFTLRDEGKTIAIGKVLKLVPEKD
Target sequence in this assay (Q96SW2 whole entry, looked up): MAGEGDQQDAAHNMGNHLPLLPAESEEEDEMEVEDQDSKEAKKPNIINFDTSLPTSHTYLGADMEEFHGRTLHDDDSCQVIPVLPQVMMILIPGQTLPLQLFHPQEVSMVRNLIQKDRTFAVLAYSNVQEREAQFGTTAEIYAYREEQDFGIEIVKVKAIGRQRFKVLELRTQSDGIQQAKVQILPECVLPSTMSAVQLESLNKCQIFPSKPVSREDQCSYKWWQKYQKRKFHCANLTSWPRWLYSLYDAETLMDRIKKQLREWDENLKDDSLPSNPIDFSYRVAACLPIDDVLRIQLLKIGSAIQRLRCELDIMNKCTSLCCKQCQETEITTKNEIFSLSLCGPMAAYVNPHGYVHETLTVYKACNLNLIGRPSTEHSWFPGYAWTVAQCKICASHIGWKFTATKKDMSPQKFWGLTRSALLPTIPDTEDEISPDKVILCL

[2] = molecular target: T1, Protein cereblon/Eukaryotic peptide chain release factor GTP-binding subunit ERF3A; experiment: Molecular glue activity at CRBN/GSPT1 in human VCaP cells assessed as induction of GSPT1 degradation at 50 nM preincubated with MLN4924 followed by compound addition and measured after 12 hrs by Western blot analysis; format: cell-based
Target sequence in this assay (P15170 whole entry, looked up): as the sequence (P15170 whole entry, looked up) above
Target sequence in this assay (Q96SW2 whole entry, looked up): as the sequence (Q96SW2 whole entry, looked up) above

[3] = tested on: Protein cereblon/Androgen receptor (Homo sapiens), P10275+Q96SW2 [UNDEFINED MUTATION]; experiment: PROTAC activity at CRBN/Androgen receptor splice variant 7 in human 22Rv1 cells assessed as induction of AR-V7 degradation at 0.01 uM incubated for 24 hrs by Western blot analysis relative to control; format: cell-based
Sequence of Protein cereblon/Androgen receptor (Homo sapiens), P10275+Q96SW2 [UNDEFINED MUTATION] (P10275 whole entry, looked up, stated change not applied, canonical isoform): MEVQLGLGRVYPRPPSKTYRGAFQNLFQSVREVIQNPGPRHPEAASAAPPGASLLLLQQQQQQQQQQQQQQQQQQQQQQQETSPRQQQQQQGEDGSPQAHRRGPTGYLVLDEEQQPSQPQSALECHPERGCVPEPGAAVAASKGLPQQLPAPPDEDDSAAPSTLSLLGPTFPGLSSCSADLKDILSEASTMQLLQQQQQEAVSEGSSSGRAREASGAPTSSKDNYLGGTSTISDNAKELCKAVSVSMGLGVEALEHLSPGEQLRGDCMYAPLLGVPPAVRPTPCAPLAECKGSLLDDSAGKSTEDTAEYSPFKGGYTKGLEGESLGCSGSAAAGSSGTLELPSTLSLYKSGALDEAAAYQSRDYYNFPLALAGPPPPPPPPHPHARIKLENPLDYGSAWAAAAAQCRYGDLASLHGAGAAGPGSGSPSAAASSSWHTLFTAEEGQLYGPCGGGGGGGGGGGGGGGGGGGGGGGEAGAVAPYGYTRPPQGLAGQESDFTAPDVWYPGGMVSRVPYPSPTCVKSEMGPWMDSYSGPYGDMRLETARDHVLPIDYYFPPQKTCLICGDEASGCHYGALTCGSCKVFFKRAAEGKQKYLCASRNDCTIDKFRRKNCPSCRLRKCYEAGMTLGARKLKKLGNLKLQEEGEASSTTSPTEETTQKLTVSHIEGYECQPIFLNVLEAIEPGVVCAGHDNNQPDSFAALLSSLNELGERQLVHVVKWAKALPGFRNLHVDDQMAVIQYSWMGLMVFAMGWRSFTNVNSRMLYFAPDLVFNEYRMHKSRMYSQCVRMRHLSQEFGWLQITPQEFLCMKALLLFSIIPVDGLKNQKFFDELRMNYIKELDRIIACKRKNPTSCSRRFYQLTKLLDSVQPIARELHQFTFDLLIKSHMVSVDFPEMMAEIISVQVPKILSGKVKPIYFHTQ
Sequence of Protein cereblon/Androgen receptor (Homo sapiens), P10275+Q96SW2 [UNDEFINED MUTATION] (Q96SW2 whole entry, looked up, stated change not applied, canonical isoform): as the sequence (Q96SW2 whole entry, looked up) above

Androgen receptor = Androgen receptor (Homo sapiens, UniProt P10275, F877L); experiment: Inhibition of AR F876L mutant (unknown origin) transcriptional activity transfected in HEK293T cells co-transfected with PSA-luciferase reporter and pRL-TK assessed as reduction in PSA-luciferase activity incubated for 24 hrs by luminescence based microplate reader analysis; format: cell-based
[4] = Cmax in male ICR mouse at 2 mg/kg, iv by LC-MS/MS analysis; format: ADME, organism-based; conditions: in vivo
[5] = molecular target: T2, Protein cereblon/Androgen receptor (Homo sapiens, UniProt P10275+Q96SW2); experiment: PROTAC activity at CRBN/AR in human LNCaP cells assessed as decrease in TMPRSS2 protein level incubated for 24 hrs by Western blot analysis; format: cell-based; conditions: dose 1-100 nM
Target sequence in this assay (P10275 whole entry, looked up): as the sequence (P10275 whole entry, looked up, stated change not applied, canonical isoform) above
Target sequence in this assay (Q96SW2 whole entry, looked up): as the sequence (Q96SW2 whole entry, looked up) above

[6] = molecular target: T1, Protein cereblon/Eukaryotic peptide chain release factor GTP-binding subunit ERF3A; experiment: Molecular glue activity at CRBN/GSPT1 in human 22Rv1 cells assessed as induction of GSPT1 degradation incubated for 24 hrs by Western blot analysis; format: cell-based
[7] = Antiproliferative activity against human Enzalutamide-resistant VCaP cells assessed as cell growth inhibition incubated for 72 hrs by Celltiter-lumi luminescent cell viability assay; format: functional, cell-based
[8] = molecular target: T2, Protein cereblon/Androgen receptor; experiment: PROTAC activity at CRBN/AR in human 22Rv1 cells assessed as induction of AR degradation incubated for 24 hrs by Western blot analysis; format: cell-based
[9] = tested on: Protein cereblon/Androgen receptor (Homo sapiens), P10275+Q96SW2 [UNDEFINED MUTATION]; experiment: PROTAC activity at CRBN/Androgen receptor splice variant 7 in human Enzalutamide-resistant VCaP cells assessed as induction of AR-V7 degradation at 1 to 300 nM by Western blot analysis; format: cell-based; conditions: dose 1-300 nM
[10] = molecular target: T2, Protein cereblon/Androgen receptor; experiment: PROTAC activity at CRBN/AR in human LNCaP cells assessed as decrease in PSA protein level incubated for 24 hrs by Western blot analysis; format: cell-based; conditions: dose 1-100 nM
Target sequence in this assay (P10275 whole entry, looked up): as the sequence (P10275 whole entry, looked up, stated change not applied, canonical isoform) above
Target sequence in this assay (Q96SW2 whole entry, looked up): as the sequence (Q96SW2 whole entry, looked up) above

[11] = molecular target: T2, Protein cereblon/Androgen receptor; experiment: PROTAC activity at CRBN/AR in human 22Rv1 cells assessed as decrease in PSA protein level incubated for 24 hrs by Western blot analysis; format: cell-based; conditions: dose 1-10 nM
Target sequence in this assay (P10275 whole entry, looked up): as the sequence (P10275 whole entry, looked up, stated change not applied, canonical isoform) above
Target sequence in this assay (Q96SW2 whole entry, looked up): as the sequence (Q96SW2 whole entry, looked up) above

[12] = molecular target: T2, Protein cereblon/Androgen receptor; experiment: Binding affinity to CRBN/AR in human 22Rv1 cells assessed as ternary complex formation incubated for 6 hrs by co-immunoprecipitation based Western blot analysis; format: cell-based
Target sequence in this assay (P10275 whole entry, looked up): as the sequence (P10275 whole entry, looked up, stated change not applied, canonical isoform) above
Target sequence in this assay (Q96SW2 whole entry, looked up): as the sequence (Q96SW2 whole entry, looked up) above

[13] = Cytotoxicity against human THLE-2 cells assessed as cell growth inhibition incubated for 72 hrs by Celltiter-lumi luminescent cell viability assay; format: toxicity, cell-based
[14] = tested on: Protein cereblon/Androgen receptor (Homo sapiens), P10275+Q96SW2 [UNDEFINED MUTATION]; experiment: PROTAC activity at CRBN/Androgen receptor splice variant 7 in human VCaP cells assessed as induction of AR-V7 degradation at 0.01 uM incubated for 24 hrs by Western blot analysis relative to control; format: cell-based
[15] = tested on: Protein cereblon/Androgen receptor (Homo sapiens), P10275+Q96SW2 [UNDEFINED MUTATION]; experiment: PROTAC activity at CRBN/Androgen receptor splice variant 7 in human 22Rv1 cells assessed as induction of AR-V7 degradation at 20 nM incubated for 6 hrs by Western blot analysis (reference value: 0%); format: cell-based
[16] = molecular target: T2, Protein cereblon/Androgen receptor; experiment: PROTAC activity at CRBN/AR in human VCaP cells assessed as induction of AR degradation at 50 nM preincubated with MLN4924 followed by compound addition and measured after 12 hrs by Western blot analysis; format: cell-based
Target sequence in this assay (P10275 whole entry, looked up): as the sequence (P10275 whole entry, looked up, stated change not applied, canonical isoform) above
Target sequence in this assay (Q96SW2 whole entry, looked up): as the sequence (Q96SW2 whole entry, looked up) above

[17] = molecular target: T1, Protein cereblon/Eukaryotic peptide chain release factor GTP-binding subunit ERF3A; experiment: Molecular glue activity at CRBN/GSPT1 in human 22Rv1 cells assessed as induction of GSPT1 degradation at 20 nM incubated for 18 hrs by Western blot analysis (reference value: 0 %); format: cell-based
Target sequence in this assay (P15170 whole entry, looked up): as the sequence (P15170 whole entry, looked up) above
Target sequence in this assay (Q96SW2 whole entry, looked up): as the sequence (Q96SW2 whole entry, looked up) above

[18] = molecular target: T2, Protein cereblon/Androgen receptor; experiment: PROTAC activity at CRBN/AR in human 22Rv1 cells assessed as induction of AR degradation by measuring maximal efficacy incubated for 24 hrs by Western blot analysis relative to control; format: cell-based
Target sequence in this assay (P10275 whole entry, looked up): as the sequence (P10275 whole entry, looked up, stated change not applied, canonical isoform) above
Target sequence in this assay (Q96SW2 whole entry, looked up): as the sequence (Q96SW2 whole entry, looked up) above

[19] = molecular target: Protein cereblon/Zinc finger protein Aiolos (Homo sapiens) (UniProt Q96SW2+Q9UKT9); experiment: Molecular glue activity at CRBN/IKZF3 in human 22Rv1 cells assessed as induction of IKZF3 degradation at 1 uM incubated for 6 hrs by Western blot analysis; format: cell-based
[20] = molecular target: T2, Protein cereblon/Androgen receptor; experiment: PROTAC activity at CRBN/AR in human 22Rv1 cells assessed as induction of AR degradation at 20 nM incubated for 18 hrs by Western blot analysis (reference value: 0 %); format: cell-based
CWR22R [21] = experiment: Effect on androgen receptor mRNA expression in human 22Rv1 cells at 1 to 10 nM incubated for 24 hrs by RT-PCR analysis; format: functional, cell-based; conditions: dose 1-10 nM
CWR22R [22] = experiment: Cell cycle arrest in human 22Rv1 cells assessed as accumulation of cells at G1 phase at 30 nM incubated for 24 hrs by flow cytometric analysis (reference value: 49.7 %); format: functional
[23] = molecular target: T2, Protein cereblon/Androgen receptor; experiment: PROTAC activity at CRBN/AR in human 22Rv1 cells assessed as induction of AR degradation at 20 nM incubated for 12 hrs by Western blot analysis (reference value: 0 %); format: cell-based
[24] = molecular target: T1, Protein cereblon/Eukaryotic peptide chain release factor GTP-binding subunit ERF3A; experiment: Molecular glue activity at CRBN/GSPT1 in human LNCaP cells assessed as induction of GSPT1 degradation by measuring maximal efficacy incubated for 24 hrs by Western blot analysis relative to control; format: cell-based
Target sequence in this assay (P15170 whole entry, looked up): as the sequence (P15170 whole entry, looked up) above
Target sequence in this assay (Q96SW2 whole entry, looked up): as the sequence (Q96SW2 whole entry, looked up) above

[25] = molecular target: T2, Protein cereblon/Androgen receptor; experiment: PROTAC activity at CRBN/AR in human 22Rv1 cells assessed as induction of AR degradation at 50 nM preincubated with MLN4924 followed by compound addition and measured after 12 hrs by Western blot analysis; format: cell-based
[26] = molecular target: T1, Protein cereblon/Eukaryotic peptide chain release factor GTP-binding subunit ERF3A; experiment: Molecular glue activity at CRBN/GSPT1 in human VCaP cells assessed as induction of GSPT1 degradation incubated for 24 hrs by Western blot analysis; format: cell-based
[27] = molecular target: T1, Protein cereblon/Eukaryotic peptide chain release factor GTP-binding subunit ERF3A; experiment: Molecular glue activity at CRBN/GSPT1 in human VCaP cells assessed as induction of GSPT1 degradation by measuring maximal efficacy incubated for 24 hrs by Western blot analysis relative to control; format: cell-based
Target sequence in this assay (P15170 whole entry, looked up): as the sequence (P15170 whole entry, looked up) above
Target sequence in this assay (Q96SW2 whole entry, looked up): as the sequence (Q96SW2 whole entry, looked up) above

CWR22R [28] = experiment: Cell cycle arrest in human 22Rv1 cells assessed as accumulation of cells at G1 phase at 10 nM incubated for 24 hrs by flow cytometric analysis (reference value: 49.7 %); format: functional
[29] = tested on: Protein cereblon/Androgen receptor (Homo sapiens), P10275+Q96SW2 [UNDEFINED MUTATION]; experiment: PROTAC activity at CRBN/Androgen receptor splice variant 7 in human VCaP cells assessed as induction of AR-V7 degradation at 0.1 uM incubated for 24 hrs by Western blot analysis relative to control; format: cell-based
[30] = molecular target: T2, Protein cereblon/Androgen receptor; experiment: PROTAC activity at CRBN/AR in human Enzalutamide-resistant LNCaP cells assessed as induction of androgen receptor degradation at 1 to 300 nM by Western blot analysis; format: cell-based; conditions: dose 1-300 nM
[31] = molecular target: T2, Protein cereblon/Androgen receptor; experiment: PROTAC activity at CRBN/AR in human 22Rv1 cells assessed as induction of AR degradation at 20 nM incubated for 1 hrs by Western blot analysis (reference value: 0 %); format: cell-based

SMILES: COc1ccc(C(C)(C)c2cc(Cl)c(OCC3CCN(C(=O)CCCCCNc4ccc5c(c4)C(=O)N(C4CCC(=O)NC4=O)C5=O)CC3)c(C#N)c2)cc1 (stereo not given)
- Activity [1]: Time-dependent-effect
- Activity [2]: inactive
- Activity [3]: 65.7%
- IC50 (Androgen receptor): 48.6 nM
- Cmax [4]: 1120 ng/mL
- Activity [5]: Dose-dependent-effect
- Activity [6]: Dose-dependent-effect
- DC50 [6]: 1.2 nM
- IC50 [7]: 6.99 nM
- Activity [8]: Dose-dependent-effect
- DC50 [8]: 3.7 nM
- Activity [9]: Active
- Activity [10]: Dose-dependent-effect
- Activity [11]: Dose-dependent-effect
- Activity [12]: Active
- IC50 at 72 h [13]: > 10000 nM
- Activity [14]: 85.1%
- Activity [15]: 20.1%
- Activity [16]: inactive
- Activity [17]: 98.4%
- Emax [18]: 90%
- Activity [19]: inactive
- Activity [20]: 84.1%
- Activity (CWR22R [21]): Minimal_effect
- Activity (CWR22R [22]): 74.6%
- Activity [23]: 56.1%
- Emax [24]: 96.5%
- Activity [25]: inactive
- Activity [26]: Dose-dependent-effect
- DC50 [26]: 0.6 nM
- Emax [27]: 96%
- Activity (CWR22R [28]): 58.9%
- Activity [29]: 81.3%
- Activity [30]: Active
- Activity [31]: 49%
